Test results taken from patent US6124306A, “Thioalkyl alpha substituted pyrimidine compounds” (Pharmacia & Upjohn Company, priority 1998, dated 2000).

Columns and labels:
IIIB-WT = assay: Antiviral activity in MT4 cells, HIV-1 p24 core antigen quantitation; format: cell-based; details: Human immunodeficiency virus 1, IIIB, 96 h, infection 0.001-0.005 TCID50 per cell, p24 antigen at four days post-infection, concentration inhibiting 90% of p24 production
Procedure: (§1) Assessment of the antiviral activities of the Compounds 1 and 290 versus the panel of viruses used in these studies was carried out in MT4 cells. Cells were batch infected with the appropriate virus stock at a multiplicity of infection of 0.001-0.005 TCID50 per cell for 2 hours at 37° C. The cells were washed, resuspended in RPMI/FBS and plated in 24 well dishes at a final concentration of 1.5×10^5 cells/ml to which were added 2× drug treatments prepared in RPMI/FBS. All treatment concentrations were tested in duplicate. The final DMSO concentration for all treatments or vehicle control cultures was 0.1%. At four days post-infection culture fluid samples were collected for HIV-1 p24 core antigen quantitation to determine antiviral effects. Linear regression analysis was used to calculate the drug concentration necessary to inhibit 90% (inhibitory concentration 90, IC90) of non-drug treated p24 antigen production.

MF-delavirdine (P236L) = assay: as above; format: cell-based; details: Human immunodeficiency virus 1, MT4, 96 h, read-out: MF-delavirdine (P236L) IC90 (μM)
Procedure: as §1

CSc1cc(N)nc(S[C@@H](C)c2cc3c(C)coc3cn2)n1 [Compound #290, (S)-(-)-4-Amino-6-methylthio-2-(1-(3-methylfuro[2,3-c]pyridine-5-yl)ethyl)thio-pyrimidine]
IC90 (IIIB-WT): 4 nM
IC90 (MF-delavirdine (P236L)): 0.02 µM

CSc1cc(N)nc(S[C@@H](C)c2cc3ccoc3cn2)n1 [Compound #1]
IC90 (IIIB-WT): 8 nM
IC90 (MF-delavirdine (P236L)): 0.02 µM
